# Results from PubChem BioAssay AID1259407 (Chemical Carcinogenesis Research Information System (CCRIS), 2018).
# Calls of active or inactive are those of the source. No rule for the calls is given here.
# Tested on: CCRIS mutagenicity, Ames/micronucleus/aberration tests
# Experiment: CCRIS mutagenicity studies
# [1] = Test System: AMES SALMONELLA TYPHIMURIUM, Strain/Indicator: TA98, Metabolic Activation: NONE, Method: STANDARD PLATE
# [2] = Test System: AMES SALMONELLA TYPHIMURIUM, Strain/Indicator: TA100, Metabolic Activation: NONE, Method: STANDARD PLATE
# [3] = Test System: AMES SALMONELLA TYPHIMURIUM, Strain/Indicator: TA100, Metabolic Activation: RAT, LIVER, S-9, AROCLOR 1254, Method: STANDARD PLATE
# [4] = Test System: AMES SALMONELLA TYPHIMURIUM, Strain/Indicator: TA98, Metabolic Activation: NONE, Method: PREINCUBATION
# [5] = Test System: AMES SALMONELLA TYPHIMURIUM, Strain/Indicator: TA1535, Metabolic Activation: NONE, Method: PREINCUBATION
# [6] = Test System: AMES SALMONELLA TYPHIMURIUM, Strain/Indicator: TA1537, Metabolic Activation: NONE, Method: PREINCUBATION
smiles,measurement,setting,value
[Cl][Cd][Cl],mutagenic call,"End Point: IN VITRO MICRONUCLEUS, Test System: CHL/IU CELLS, Metabolic Activation: NONE",active; positive
same,mutagenic call,"End Point: IN VITRO MICRONUCLEUS, Test System: HAMSTER V79 CELLS, Metabolic Activation: NONE",active; positive
same,mutagenic call,"End Point: IN VITRO MICRONUCLEUS, Test System: HUMAN PERIPHERAL LYMPHOCYTES, Metabolic Activation: NONE, Method: FISH (CENTROMERIC SIGNAL CONTENT)",active; positive
same,mutagenic call,"Test System: AMES SALMONELLA TYPHIMURIUM, Strain/Indicator: TA97, Metabolic Activation: NONE, Method: STANDARD PLATE",inactive; negative
same,mutagenic call,"Test System: AMES SALMONELLA TYPHIMURIUM, Strain/Indicator: TA97, Metabolic Activation: RAT, LIVER, S-9, AROCLOR 1254, Method: STANDARD PLATE",inactive; negative
same,mutagenic call,[1],inactive; negative
same,mutagenic call,"Test System: AMES SALMONELLA TYPHIMURIUM, Strain/Indicator: TA98, Metabolic Activation: RAT, LIVER, S-9, AROCLOR 1254, Method: STANDARD PLATE",inactive; negative
same,mutagenic call,"Test System: AMES SALMONELLA TYPHIMURIUM, Strain/Indicator: TA98, Metabolic Activation: S-9, Method: STANDARD PLATE",inactive; negative
same,mutagenic call,[2],inactive; negative
same,mutagenic call,[3],inactive; negative
same,mutagenic call,"Test System: AMES SALMONELLA TYPHIMURIUM, Strain/Indicator: TA1535, Metabolic Activation: NONE, Method: STANDARD PLATE",inactive; negative
same,mutagenic call,"Test System: AMES SALMONELLA TYPHIMURIUM, Strain/Indicator: TA1535, Metabolic Activation: S-9, Method: STANDARD PLATE",inactive; negative
same,mutagenic call,"Test System: CHINESE HAMSTER V-79, Strain/Indicator: SP5 V-79 (HPRT)/6-THIOGUANINE, Metabolic Activation: NONE, Method: STANDARD PLATE",inactive; negative
same,mutagenic call,"Test System: CHINESE HAMSTER V-79, Strain/Indicator: SPD8 V-79 (HPRT)/6-THIOGUANINE, Metabolic Activation: NONE, Method: STANDARD PLATE",active; positive
same,mutagenic call,"Test System: CHINESE HAMSTER V-79 CELLS, Strain/Indicator: V-79 CELLS (HPRT)/6-THIOGUANINE, Metabolic Activation: NONE, Method: PREINCUBATION",inactive; negative
same,mutagenic call,"Test System: Chinese hamster lung cells, Strain/Indicator: V-79/HPRT/6-Thioguanidine, Metabolic Activation: None, Method: Standard Plate",active; positive
same,mutagenic call,"Test System: E. COLI, Strain/Indicator: WP2 UVRA, Metabolic Activation: NONE, Method: SPOT TEST",active; positive
same,mutagenic call,"Test System: E. COLI, Strain/Indicator: WP2 UVRA, Metabolic Activation: NONE, Method: STANDARD PLATE",active; positive
same,mutagenic call,"Test System: Rat lymphocytes, Strain/Indicator: Kumin/Male/HPRT/6-Thioguanidine, Metabolic Activation: None, Method: Intraperitoneal injection, blood collection 1, 6, and 12 d later",active; positive
same,mutagenic call,"Test System: UDS HAMSTER TRACHEAL EPITHELIAL CELLS, Strain/Indicator: THY INCORP (NON-S-PHASE), Metabolic Activation: NONE, Method: AUTORADIOGRAPHY",inactive; negative
same,mutagenic call,"Test System: UDS RAT TRACHEAL EPITHELIAL CELLS, Strain/Indicator: THY INCORP (NON-S-PHASE), Metabolic Activation: NONE, Method: AUTORADIOGRAPHY",active; positive
Oc1ccc2ccc3c4ccccc4ccc3c2c1,mutagenic call,[1],inactive; negative
same,mutagenic call,[2],inactive; negative
same,mutagenic call,[3],active; positive
O=c1nc(O)n(Cl)c(=O)n1Cl,mutagenic call,"Test System: AMES SALMONELLA TYPHIMURIUM, Strain/Indicator: TA98, Metabolic Activation: HAMSTER, LIVER, S-9, AROCLOR 1254 (10%), Method: PREINCUBATION",inactive; negative
same,mutagenic call,[4],inactive; negative
same,mutagenic call,"Test System: AMES SALMONELLA TYPHIMURIUM, Strain/Indicator: TA98, Metabolic Activation: RAT, LIVER, S-9, AROCLOR 1254 (10%), Method: PREINCUBATION",inactive; negative
same,mutagenic call,"Test System: AMES SALMONELLA TYPHIMURIUM, Strain/Indicator: TA100, Metabolic Activation: HAMSTER, LIVER, S-9, AROCLOR 1254 (10%), Method: PREINCUBATION",inactive; negative
same,mutagenic call,"Test System: AMES SALMONELLA TYPHIMURIUM, Strain/Indicator: TA100, Metabolic Activation: NONE, Method: PREINCUBATION",inactive; negative
same,mutagenic call,"Test System: AMES SALMONELLA TYPHIMURIUM, Strain/Indicator: TA100, Metabolic Activation: RAT, LIVER, S-9, AROCLOR 1254 (10%), Method: PREINCUBATION",inactive; negative
same,mutagenic call,"Test System: AMES SALMONELLA TYPHIMURIUM, Strain/Indicator: TA1535, Metabolic Activation: HAMSTER, LIVER, S-9, AROCLOR 1254 (10%), Method: PREINCUBATION",inactive; negative
same,mutagenic call,[5],inactive; negative
same,mutagenic call,"Test System: AMES SALMONELLA TYPHIMURIUM, Strain/Indicator: TA1535, Metabolic Activation: RAT, LIVER, S-9, AROCLOR 1254 (10%), Method: PREINCUBATION",inactive; negative
same,mutagenic call,"Test System: AMES SALMONELLA TYPHIMURIUM, Strain/Indicator: TA1537, Metabolic Activation: HAMSTER, LIVER, S-9, AROCLOR 1254 (10%), Method: PREINCUBATION",inactive; negative
same,mutagenic call,[6],inactive; negative
same,mutagenic call,"Test System: AMES SALMONELLA TYPHIMURIUM, Strain/Indicator: TA1537, Metabolic Activation: RAT, LIVER, S-9, AROCLOR 1254 (10%), Method: PREINCUBATION",inactive; negative
Cc1ccc(N)c(O)c1,mutagenic call,"Test System: AMES SALMONELLA TYPHIMURIUM, Strain/Indicator: TA98, Metabolic Activation: HAMSTER LIVER S-9, AROCLOR 1254, Method: STANDARD PLATE",inactive; negative
same,mutagenic call,[1],inactive; negative
same,mutagenic call,"Test System: AMES SALMONELLA TYPHIMURIUM, Strain/Indicator: TA98, Metabolic Activation: RAT LIVER S-9, AROCLOR 1254, Method: STANDARD PLATE",inactive; negative
same,mutagenic call,"Test System: AMES SALMONELLA TYPHIMURIUM, Strain/Indicator: TA100, Metabolic Activation: HAMSTER LIVER S-9, AROCLOR 1254, Method: STANDARD PLATE",inactive; negative
same,mutagenic call,[2],active; positive
same,mutagenic call,"Test System: AMES SALMONELLA TYPHIMURIUM, Strain/Indicator: TA100, Metabolic Activation: RAT LIVER S-9, AROCLOR 1254, Method: STANDARD PLATE",inactive; negative
same,mutagenic call,"Test System: MOUSE LYMPHOMA, Strain/Indicator: L5178Y (TK+/TK-), Metabolic Activation: NONE, Method: SUSPENSION/PLATE",active; positive. reevaluation of results: positive
same,mutagenic call,"Test System: MOUSE LYMPHOMA, Strain/Indicator: L5178Y (TK+/TK-), Metabolic Activation: RAT, LIVER, S-9, AROCLOR 1254, Method: SUSPENSION/PLATE",active; positive. reevaluation of results: equivocal
Nc1ccc2nc3ccccc3c(N)c2c1,mutagenic call,[5],inactive; negative
same,mutagenic call,"Test System: AMES SALMONELLA TYPHIMURIUM, Strain/Indicator: TA1535, Metabolic Activation: RAT, LIVER, S-9, TETRACHLOROBIPHENYL, Method: PREINCUBATION",inactive; negative
same,mutagenic call,[6],active; positive
same,mutagenic call,"Test System: AMES SALMONELLA TYPHIMURIUM, Strain/Indicator: TA1537, Metabolic Activation: RAT, LIVER, S-9, TETRACHLOROBIPHENYL, Method: PREINCUBATION",active; positive
same,mutagenic call,"Test System: AMES SALMONELLA TYPHIMURIUM, Strain/Indicator: TA1538, Metabolic Activation: NONE, Method: PREINCUBATION",inactive; negative
same,mutagenic call,"Test System: AMES SALMONELLA TYPHIMURIUM, Strain/Indicator: TA1538, Metabolic Activation: RAT, LIVER, S-9, TETRACHLOROBIPHENYL, Method: PREINCUBATION",active; positive
same,mutagenic call,"Test System: AMES SALMONELLA TYPHIMURIUM, Strain/Indicator: TA1977, Metabolic Activation: NONE, Method: PREINCUBATION",active; positive
same,mutagenic call,"Test System: AMES SALMONELLA TYPHIMURIUM, Strain/Indicator: TA1977, Metabolic Activation: RAT, LIVER, S-9, TETRACHLOROBIPHENYL, Method: PREINCUBATION",active; positive
same,mutagenic call,"Test System: AMES SALMONELLA TYPHIMURIUM, Strain/Indicator: TA1978, Metabolic Activation: RAT, LIVER, S-9, TETRACHLOROBIPHENYL, Method: PREINCUBATION",inactive; negative
CCNC(=O)/C=C/c1ccc([N+](=O)[O-])o1,mutagenic call,[4],active; positive
Nc1cc(N)c(-c2ccccc2)c([N+](=O)[O-])c1,mutagenic call,[4],active; positive
same,mutagenic call,"Test System: AMES SALMONELLA TYPHIMURIUM, Strain/Indicator: TA98, Metabolic Activation: RAT, LIVER, S-9, KANECHLOR 500, Method: PREINCUBATION",active; positive
